What all share (type): cell-based, Human
In test [1] the test system is A375 melanoma cells (BRAFV600E mutant). The test can be described thus: Cell viability (Cell Titer-Glo) in A375 melanoma cells, single agents and matrix combination. To be noted: for cells killed / concentration that killed 100% of the cells: 72 hr; for cells killed: FIG. 3; for concentration that killed 100% of the cells: FIG. 2; for IC50: Homo sapiens, A-375, 72 hr, FIG. 2, read-out: concentration that killed 50% of the cells. The procedure: (§1) Human H1666 NSCLC (BRAFG466V mutant) and A375 melanoma cells (BRAFV600E mutant) were purchased from the American Type Culture Collection (Manassas, Va.) and grown in RPMI or DMEM, respectively, in the presence of fetal bovine serum (10%), 2 mM L-glutamine and antibiotics (100 IU/ml penicillin and 100 μg/ml streptomycin) purchased from Sigma Aldrich. Cells were maintained at 37° C., 5% CO2 atmosphere.
(§2) Cell viability was measured using the Cell Titer-Glo assay (Promega). In brief, cells were plated in 96-well plates in triplicate at optimal seeding density (determined empirically for each cell line) and incubated at 37° C., 5% CO2 atmosphere for 24 hr prior to the addition of drug or vehicle (0.3% DMSO) to the culture medium. At the end of the assay, Cell Titer-Glow was added to the wells per manufactures recommendation, shaken for two minutes and incubated for 10 minutes at room temperature. Luminescence (0.1 sec) was measured with a Victor II microplate reader (Perkin Elmer) and the resulting data were used to calculate cell viability, normalized to vehicle control.
Matrix style combinations between AZD6244 and Ganetespib were performed in A375 melanoma cells. Cells were exposed to AZD6244, ganetespib or the combination of the two concurrently for 72 hr and viability was assessed.
Combination Index (CI) was then determined using the median effect analysis software CalcuSyn 2.0 (CalcuSyn, Inc.). A Combination Index greater than one, equal to one or less than one indicates antagonism, additivity and synergism, respectively.

The subject of test [2] is ERK. The test can be described thus: Western blotting of MAPK pathway analytes in A375 cells treated for 24 hr. To be noted: A375 melanoma cells with constitutively activated MAPK, FIG. 1. The procedure:
as §1
Cells, treated with compound for 24 hr, were lysed in RIPA buffer (CST, Danvers, Mass., USA) on ice and clarified by centrifugation. Equal amounts of proteins were resolved by SDS-PAGE and immunoblotted with indicated antibodies. The antigen-antibody complex was visualized and quantitated using an Odyssey system (LI-COR, Lincoln, Nebr., USA).
The mitogen-activated protein kinase (MAPK) signal transduction cascade is dysregulated in a majority of human tumors.

In test [3] the test system is H1666 NSCLC (BRAFG466V mutant). Kind of test: Cell viability (Cell Titer-Glo) in H1666 NSCLC cells, single agents and combination. Conditions: FIG. 5. The procedure:
as §1, §2
The combination of ganetespib and AZD6244 was performed in the NSCLC cell line H1666. Similar to A375 cells, the combination of both compounds yielded greater anticancer activity than monotherapy. […]
(ATP-based viability assays read luminescence as a measure of living cells.)

Consider `Cn1cnc2c(F)c(Nc3ccc(Br)cc3Cl)c(C(=O)NOCCO)cc21` [AZD6244, 6-(4-bromo-2-chloro-phenylamino)-7-fluoro-3-methyl-3H-benzoimidazole-5-carboxylic acid (2-hydroxy-ethoxy)-amide], for which the cells killed in test [1] (AZD6244 24 nM alone) turned out to be 10%. For the same compound, in test [1], the “concentration that killed 100% of the cells” value was determined as 228 nM and the IC50 was found to be 65 nM. In addition, the “disruption of activation of the MEK substrate ERK / abrogation of ERK activity (western blot)” value in test [2] is on record as “highly effective”. Moreover, the cells killed result in test [3] (AZD6244 118 nM alone) is listed as “approximately 50%”.

With `CC(C)c1cc(-c2nnc(O)n2-c2ccc3c(ccn3C)c2)c(O)cc1O` [ganetespib, 3-(2,4-dihydroxy-5-isopropyl-phenyl)-4-(1-methyl-indol-5-yl)-5-hydroxy-[1,2,4] triazole], the “concentration that killed 100% of the cells” value in test [1] stood at 35 nM. The cells killed in test [1] (ganetespib 30 nM alone) is reported as 20%; in test [3] (ganetespib 68 nM alone), “approximately 50%”. The IC50 in test [1] amounted to 15 nM. In test [2], the “disruption of activation of the MEK substrate ERK / abrogation of ERK activity (western blot)” value was “highly effective”.

Values taken from patent publication US20140228418A1, “COMBINATION THERAPY OF HSP90 INHIBITORY COMPOUNDS WITH MEK INHIBITORS” (Synta Pharmaceuticals Corp., priority 2011, published 2014).
